Experiments:
OVA-induced dermatitis = experiment: Ovalbumin (OVA)-induced dermatitis model, ear edema; assay type: in vivo, male ICR mouse; parameters: key: ratio of compound's ear edema inhibition rate to FK506's (FK506 = 1.0); conditions: test compound 1 w/v % (FK506 0.1 w/v %), 20 μL applied to auricle, 24 hours after induction
Method: (§1) The test compound was adjusted to 1 w/v % when in use with a solvent (acetone:olive oil=1:1, v/v)) and put to use. FK506 (control substance) was adjusted to 0.1 w/v % and used.
Male ICR mouse was sensitized by the administration of 0.2 mL of OVA-hydroxide aluminum gel suspension to the abdominal cavity. After 14 days from the sensitization, the thickness of the right auricle was measured with a micrometer (pre-value). After the measurement, 20 μL of 0.5 μg/mL OVA challenge liquid (solvent was physiological saline) was subcutaneously administered to the inside of the auricle to induce ear edema. About 5 minutes after the administration of the challenge liquid, 20 μL of the test compound was applied to the outside of the auricle. After 24 hours from the induction of ear edema, the thickness of the right auricle was measured by a method similar to the pre-value (post-value). The difference between the post-value and the pre-value of ear edema by each test compound was determined, based on which the inhibition rate was calculated. The activity of each test compound was calculated with the ear edema inhibition rate of FK506 as 1.0 (ear edema inhibition rate of each test compound/ear edema inhibition rate of FK506).

TNCB-induced dermatitis = experiment: 2,4,6-Trinitrochlorobenzene (TNCB)-induced dermatitis model, ear edema; assay type: in vivo, male BALB/c mouse; conditions: test compound 1 w/v % (FK506 0.1 w/v %), 20 μL applied to auricle, 24 hours after induction
Method: as §1
The fur on the abdomen of male BALB/c mouse was shaved with a hair clipper, and 100 μL of 7 w/v % TNCB sensitizing liquid (solvent was acetone:olive oil=4:1, v/v) was applied. Six days after the sensitization, the thickness of the right auricle was measured with a micrometer (pre-value). After the measurement, 10 μL of 1 w/v % TNCB challenge liquid (solvent was acetone:olive oil=1:9, v/v) was applied to the inside of the right auricle to induce ear edema. About 5 minutes after the application of the challenge liquid, 20 μL of the test compound was applied to the outside of the auricle.
After 24 hours from the induction of ear edema, the thickness of the right auricle was measured by a method similar to the pre-value (post-value). The difference between the post-value and the pre-value of ear edema by each test compound was determined, based on which the inhibition rate was calculated. The activity of each test compound was calculated with the ear edema inhibition rate of FK506 as 1.0 (ear edema inhibition rate of each test compound/ear edema inhibition rate of FK506).

Compound | OVA-induced dermatitis, with ear edema inhibition rate of FK506 as 1.0 (OVA-induced dermatitis) | TNCB-induced dermatitis, with ear edema inhibition rate of FK506 as 1.0 (TNCB-induced dermatitis)
CCCCCOc1ccccc1C(=NN(C)C)n1ccnc1 [Compound No. 24, N′-[1-imidazol-1-yl-1-(2-pentyloxyphenyl)methylidene]-N,N-dimethylhydrazine] | 0.9 | 0.5
CN(C)N=C(c1ccccc1OCc1ccc(F)cc1)n1ccnc1 [Compound No. 35, N′-[1-[2-(4-fluorobenzyloxy)phenyl]-1-imidazol-1-ylmethylidene]-N,N-dimethylhydrazine] | 0.9 | 0.6
CN(C)N=C(c1ccccc1OCc1ccc(Cl)cc1)n1ccnc1 [Compound No. 38, N′-[1-[2-(4-chlorobenzyloxy)phenyl]-1-imidazol-1-ylmethylidene]-N,N-dimethylhydrazine] | 1.1 | 0.7
CN(C)N=C(c1ccccc1OCc1cccc(Cl)c1)n1ccnc1 [Compound No. 40, N′-[1-[2-(3-chlorobenzyloxy)phenyl]-1-imidazol-1-ylmethylidene]-N,N-dimethylhydrazine] | 1.0 | 0.7
CCc1ccc(COc2ccccc2C(=NN(C)C)n2ccnc2)cc1 [Compound No. 48, N′-[1-[2-(4-ethylbenzyloxy)phenyl]-1-imidazol-1-ylmethylidene]-N,N-dimethylhydrazine] | 1.0 | 0.5
CN(C)N=C(c1ccccc1OCCc1ccccc1)n1ccnc1 [Compound No. 56, N′-[1-imidazol-1-yl-1-(2-phenethoxyphenyl)methylidene]-N,N-dimethylhydrazine] | 1.2 | 0.7
CN(C)N=C(c1ccccc1OCCc1ccc(F)cc1)n1ccnc1 [Compound No. 57, N′-[1-[2-[2-(4-fluorophenyl)ethoxy]phenyl]-1-imidazol-1-ylmethylidene]-N,N-dimethylhydrazine] | 1.8 | 0.8
COc1ccc(CCOc2ccccc2C(=NN(C)C)n2ccnc2)cc1 [Compound No. 58, N′-[1-imidazol-1-yl-1-[2-[2-(4-methoxyphenyl)ethoxy]phenyl]methylidene]-N,N-dimethylhydrazine] | 1.0 | 0.9
CN(C)N=C(c1ccccc1OCC1COc2ccccc2O1)n1ccnc1 (stereo not drawn) [Compound No. 73, N′-[1-[2-(2,3-dihydrobenzo[1,4]dioxin-2-ylmethoxy)phenyl]-1-imidazol-1-ylmethylidene]-N,N-dimethylhydrazine] | 1.1 | 0.7
CN(C)N=C(c1ccccc1SCCc1ccccc1)n1ccnc1 [Compound No. 84, N′-[1-imidazol-1-yl-1-(2-phenethylthiophenyl)methylidene]-N,N-dimethylhydrazine] | 1.4 | 0.9
CN(C)N=C(c1cccn1CCCOc1ccccc1)n1ccnc1 [Compound No. 108, N′-[1-imidazol-1-yl-1-[1-(3-phenoxypropyl)pyrrol-2-yl]methylidene]-N,N-dimethylhydrazine] | 1.4 | 0.9
CCN(C)N=C(c1ccccc1OCc1ccc(F)cc1)n1ccnc1 [Compound No. 113, N-ethyl-N′-[1-[2-(4-fluorobenzyloxy)phenyl]-1-imidazol-1-ylmethylidene]-N-methylhydrazine] | 1.7 | 0.6
CCN(C)N=C(c1ccccc1OCCCOc1ccccc1)n1ccnc1 [Compound No. 115, N-ethyl-N′-[1-imidazol-1-yl-1-[2-(3-phenoxypropoxy)phenyl]methylidene]-N-methylhydrazine] | 1.4 | 0.7
CCN(C)N=C(c1ccccc1OCCCCOc1ccccc1)n1ccnc1 [Compound No. 116, N-ethyl-N′-[1-imidazol-1-yl-1-[2-(4-phenoxybutoxy)phenyl]methylidene]-N-methylhydrazine] | 1.1 | 0.7
CCN(CC)N=C(c1ccccc1OCCOc1ccccc1)n1ccnc1 [Compound No. 119, N,N-diethyl-N′-[1-imidazol-1-yl-1-[2-(2-phenoxyethoxy)phenyl]methylidene]hydrazine] | 1.1 | 0.9
c1ccc(OCCOc2ccccc2C(=NN2CCCCC2)n2ccnc2)cc1 [Compound No. 175, [1-imidazol-1-yl-1-[2-(2-phenoxyethoxy)phenyl]methylidene]piperidin-1-ylamine] | 1.4 | 0.6
CCOc1ccccc1C(=NN1CCCCCC1)n1ccnc1 [Compound No. 197, [1-(2-ethoxyphenyl)-1-imidazol-1-ylmethylidene]homopiperidin-1-ylamine] | 1.1 | 0.7
CCCCOc1ccccc1C(=NN1CCCCCC1)n1ccnc1 [Compound No. 202, [1-(2-butoxyphenyl)-1-imidazol-1-ylmethylidene]homopiperidin-1-ylamine] | 1.0 | 0.7
CCCCCOc1ccccc1C(=NN1CCCCCC1)n1ccnc1 [Compound No. 203, homopiperidin-1-yl-[1-imidazol-1-yl-1-(2-pentyloxyphenyl)methylidene]amine] | 1.0 | 0.9
c1ccc(OCCOc2ccccc2C(=NN2CCCCCC2)n2ccnc2)cc1 [Compound No. 215, homopiperidin-1-yl-[1-imidazol-1-yl-1-[2-(2-phenoxyethoxy)phenyl]methylidene]amine] | 1.2 | 0.8
c1ccc(OCCCOc2ccccc2C(=NN2CCCCCC2)n2ccnc2)cc1 [Compound No. 216, homopiperidin-1-yl-[1-imidazol-1-yl-1-[2-(3-phenoxypropoxy)phenyl]methylidene]amine] | 1.5 | 0.5
FC(F)(F)Oc1ccccc1C(=NN1CCCCCC1)n1ccnc1 [Compound No. 219, homopiperidin-1-yl-[1-imidazol-1-yl-1-(2-trifluoromethoxyphenyl)methylidene]amine] | 1.1 | 0.6
CCSc1ccccc1C(=NN1CCCCCC1)n1ccnc1 [Compound No. 220, [1-(2-ethylthiophenyl)-1-imidazol-1-ylmethylidene]homopiperidin-1-ylamine] | 1.1 | 0.5
C=CC[C@@H]1/C=C(\C)C[C@H](C)C[C@H](OC)[C@H]2O[C@@](O)(C(=O)C(=O)N3CCCC[C@H]3C(=O)O[C@H](/C(C)=C/[C@@H]3CC[C@@H](O)[C@H](OC)C3)[C@H](C)[C@@H](O)CC1=O)[C@H](C)C[C@@H]2OC [FK506, tacrolimus, reference compound] | 1.0 | 1.0

Source: patent US8022072B2, “Azolylmethylidenehydrazine derivative and use thereof” (Kaken Pharmaceutical Co., Ltd., priority 2007, dated 2011)
